The supplement of paper PMC10307832

Columns and labels:
Assay in all cases: relative viability (nuclei count vs DMSO), 5 days (fraction); higher = more cells survive
Axitinib + OSI-027 = compound: CNC(=O)c1ccccc1Sc1ccc2c(/C=C/c3ccccn3)n[nH]c2c1 [Axitinib] + COc1cccc2cc(-c3nc([C@H]4CC[C@H](C(=O)O)CC4)n4ncnc(N)c34)[nH]c12 [OSI-027] (partner 0.5 µM)
Outline: (§1)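 Lung cancer cell lines were seeded in 1536-well plates and dosed by pin tool the next day, with either a single drug or a fixed anchor-drug dose combined with five library-drug doses (not always all listed) spaced in √10 steps. Five days later, one step fixed the cells and stained their nuclei (final 0.05% Triton X-100, 1% formaldehyde, 1 ug/ml Hoechst), and nuclei were counted on 4× images. Relative viability is the nuclei count in treated wells divided by the count in vehicle wells, and each value is the median of duplicate plates.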

Axitinib + Olaparib = compound: CNC(=O)c1ccccc1Sc1ccc2c(/C=C/c3ccccn3)n[nH]c2c1 [Axitinib] + O=C(c1cc(Cc2n[nH]c(=O)c3ccccc23)ccc1F)N1CCN(C(=O)C2CC2)CC1 [Olaparib] (partner 8 µM)
Outline: as §1

Bemcentinib + Pictilisib = compound: Nc1nc(Nc2ccc3c(c2)CC[C@@H](N2CCCC2)CC3)nn1-c1cc2c(nn1)-c1ccccc1CCC2 [Bemcentinib] + CS(=O)(=O)N1CCN(Cc2cc3nc(-c4cccc5[nH]ncc45)nc(N4CCOCC4)c3s2)CC1 [Pictilisib] (partner 1 µM)
Outline: as §1

Bemcentinib + Olaparib = compound: Nc1nc(Nc2ccc3c(c2)CC[C@@H](N2CCCC2)CC3)nn1-c1cc2c(nn1)-c1ccccc1CCC2 [Bemcentinib] + O=C(c1cc(Cc2n[nH]c(=O)c3ccccc23)ccc1F)N1CCN(C(=O)C2CC2)CC1 [Olaparib] (partner 8 µM)
Outline: as §1

Cell Line | relative viability (Axitinib + OSI-027; first compound 0.005 µM) | relative viability (Axitinib + OSI-027; first compound 0.01581 µM) | relative viability (Axitinib + OSI-027; first compound 0.05 µM) | relative viability (Axitinib + OSI-027; first compound 0.1581 µM) | relative viability (Axitinib + OSI-027; first compound 0.5 µM) | relative viability (Axitinib + Olaparib; first compound 0.005 µM) | relative viability (Axitinib + Olaparib; first compound 0.01581 µM) | relative viability (Axitinib + Olaparib; first compound 0.05 µM) | relative viability (Axitinib + Olaparib; first compound 0.1581 µM) | relative viability (Axitinib + Olaparib; first compound 0.5 µM) | relative viability (Bemcentinib + Pictilisib; first compound 0.1265 µM) | relative viability (Bemcentinib + Pictilisib; first compound 0.4 µM) | relative viability (Bemcentinib + Pictilisib; first compound 1.265 µM) | relative viability (Bemcentinib + Pictilisib; first compound 4 µM) | relative viability (Bemcentinib + Olaparib; first compound 0.04 µM) | relative viability (Bemcentinib + Olaparib; first compound 0.1265 µM) | relative viability (Bemcentinib + Olaparib; first compound 0.4 µM) | relative viability (Bemcentinib + Olaparib; first compound 1.265 µM) | relative viability (Bemcentinib + Olaparib; first compound 4 µM) | relative viability (Bemcentinib + Pictilisib; first compound 0.04 µM)
EPLC-272H | 0.3 | 0.286 | 0.248 | 0.293 | 0.283 | 0.845 | 0.927 | 0.884 | 0.475 | 1.13 | 0.356 | 0.343 | 0.294 | 0.316 | 0.753 | 1.02 | 0.975 | 0.833 | 0.761 | –
SK-MES-1 | 0.748 | 0.647 | 0.638 | 0.642 | 0.854 | 0.775 | 0.829 | 0.711 | 0.833 | 1.02 | 0.379 | 0.404 | 0.361 | 0.374 | 0.833 | 0.771 | 0.734 | 0.823 | 0.682 | 0.303
NCI-H520 | 0.234 | 0.218 | 0.216 | – | 0.24 | 0.342 | 0.345 | 0.361 | 0.251 | 0.368 | 0.309 | 0.316 | 0.288 | 0.406 | 0.394 | 0.335 | 0.343 | 0.387 | 0.415 | 0.289
BEN | 0.3 | 0.287 | 0.3 | 0.286 | 0.342 | 1.17 | 1.42 | 0.903 | 1.02 | 1.07 | 0.6 | 0.631 | 0.564 | 0.591 | 1.05 | 1.25 | 1.02 | 1.19 | 1.18 | 0.551
LK-2 | 0.202 | 0.168 | 0.193 | 0.191 | 0.186 | 0.65 | 0.609 | 0.762 | 0.712 | 0.545 | 0.608 | 0.583 | 0.748 | 0.611 | 0.694 | 0.756 | 0.837 | 0.839 | 0.677 | 0.526
NCI-H2087 | 0.622 | 0.558 | 0.696 | 0.562 | 0.831 | 0.741 | 0.503 | 0.642 | 0.549 | 0.661 | 0.973 | 1.03 | 0.813 | 0.89 | 0.638 | 0.65 | 0.616 | 0.614 | 0.644 | 0.813
NCI-H661 | 0.741 | 0.754 | 0.721 | 0.617 | 0.855 | 0.724 | 0.753 | 0.741 | 0.698 | 0.834 | 0.449 | 0.422 | 0.357 | 0.369 | 0.692 | 0.782 | 0.789 | 0.738 | 0.763 | 0.318
NCI-H2170 | 0.721 | 0.686 | 0.703 | 0.715 | 0.631 | 0.693 | 0.616 | 0.569 | 0.595 | 0.671 | 0.324 | 0.352 | 0.259 | 0.311 | 0.563 | 0.661 | 0.567 | 0.583 | 0.589 | 0.267
LCLC-103H | 0.461 | 0.487 | 0.472 | 0.432 | 0.535 | 0.803 | 0.784 | 0.753 | 0.881 | 0.824 | 0.632 | 0.692 | 0.604 | 0.616 | 0.802 | 0.811 | 0.796 | 0.86 | 0.783 | 0.588
NCI-H441 | 0.736 | 0.604 | 0.681 | 0.541 | 0.748 | 0.675 | 0.499 | 0.539 | 0.503 | 0.453 | 0.53 | 0.575 | 0.509 | 0.399 | 0.606 | 0.665 | 0.53 | 0.537 | 0.402 | 0.572
LOU-NH91 | 0.736 | 0.513 | 0.745 | 0.719 | 0.707 | 0.942 | 0.745 | 0.951 | 0.893 | 0.934 | 0.526 | 0.556 | 0.524 | 0.483 | 0.886 | 0.848 | 0.942 | 0.927 | 0.937 | 0.498
NCI-H647 | 0.703 | 0.617 | 0.69 | 0.551 | 0.787 | 0.581 | 0.527 | 0.708 | 0.622 | 0.644 | 0.602 | 0.427 | 0.455 | 0.363 | 0.479 | 0.666 | 0.698 | 0.602 | 0.624 | 0.385
NCI-H1915 | 0.615 | 0.653 | 0.65 | 0.64 | 0.756 | 0.28 | 0.255 | 0.243 | 0.234 | 0.284 | 1.04 | 0.975 | 0.962 | 0.943 | 0.282 | 0.242 | 0.243 | 0.232 | 0.26 | 0.893
NCI-H1944 | 0.389 | 0.404 | 0.42 | 0.424 | 0.392 | 0.469 | 0.397 | 0.384 | 0.402 | 0.427 | 0.342 | 0.371 | 0.357 | 0.343 | 0.413 | 0.414 | 0.418 | 0.436 | 0.424 | 0.356
NCI-H1792 | 0.785 | 0.652 | 0.563 | 0.679 | 0.919 | 0.458 | 0.445 | 0.576 | 0.485 | 0.651 | 0.281 | 0.238 | 0.337 | 0.288 | 0.496 | 0.353 | 0.538 | 0.391 | 0.498 | 0.3
HARA | 0.445 | 0.414 | 0.666 | 0.49 | 0.802 | 1.02 | 0.88 | 0.835 | 0.95 | 0.921 | 0.423 | 0.338 | 0.392 | 0.371 | 0.778 | 1.17 | 1.14 | 0.929 | 0.76 | 0.407
NCI-H2347 | 0.482 | 0.407 | 0.422 | 0.423 | 0.51 | 0.592 | 0.629 | 0.575 | 0.65 | 0.557 | 0.488 | 0.708 | 0.82 | 0.649 | 0.58 | 0.587 | 0.553 | 0.659 | 0.611 | 0.511
